Test results as given in PubChem BioAssay AID687005 (Broad Institute, 2013).
Inconclusive results are not listed. Active and inactive are the calls of the source.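 Rule for the calls: active = Compounds that reduce signal, with fitted half-maximal dose at or under twice the top valid tested dose; inconclusive = Poor fit, or flat curve losing 30 to 70% of signal; inactive = Potency past limit, flat within 30%, or opposite direction.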

Test: HEK293T cell cytotoxicity, dose response, cytotoxicity control, ATP luminescence, cherry-pick samples (AID 687005)
Settings: HEK293T viability, ATP luminescence (CellTiter-Glo), 48 h; at 18 µM (top of the series)
In the case of `CN1CCN(C(=O)CN(c2ccc(I)cc2)S(=O)(=O)c2ccccc2)CC1`, the activity change, negative = cytotoxicity is reported as 45.2% (inactive).

Same assay, conditions: HEK293T viability, ATP luminescence (CellTiter-Glo), 48 h; at 23.5 µM (top of the series)
For `C[C@@H]1CN([C@@H](C)CO)C(=O)c2cc(NC(=O)Nc3ccc(F)cc3)ccc2O[C@@H](C)CCCCO[C@H]1CN(C)S(=O)(=O)c1ccccc1`, the activity change, negative = cytotoxicity was 3.48% (inactive).
In the case of `CC(C)NC(=O)N1CC[C@@H]2[C@@H](CO)N(C)c3ccc(-c4cccc(F)c4)cc3[C@@H]21`, the activity change, negative = cytotoxicity is reported as 40.1% (inactive).
With `COc1cccc(C#Cc2cnc3c(c2)C(=O)N([C@H](C)CO)C[C@@H](C)[C@@H](CN(C)C(=O)C2CCOCC2)O3)c1` the activity change, negative = cytotoxicity was 6.67% (inactive).
With `C[C@@H]1CN([C@@H](C)CO)C(=O)CCCn2cc(nn2)CO[C@@H]1CN(C)Cc1ccc2c(c1)OCO2` the activity change, negative = cytotoxicity was -1.87% (inactive).
For `Cc1noc(C)c1S(=O)(=O)Nc1ccc2c(c1)CC(=O)N([C@@H](C)CO)C[C@@H](C)[C@@H](CN(C)S(=O)(=O)c1cccs1)O2`, the activity change, negative = cytotoxicity was -16.9% (inactive).

Same assay, conditions: HEK293T viability, ATP luminescence (CellTiter-Glo), 48 h; at 26 µM (top of the series)
In the case of `CCCNC(=O)N1C[C@@H]2[C@H](c3ccccc31)[C@H](CO)N2Cc1ccc(OC)cc1`, the activity change, negative = cytotoxicity is reported as 2.66% (inactive).
With `Cc1noc(C)c1NC(=O)N(C)C[C@H]1Oc2ccc(N(C)C)cc2C(=O)N([C@H](C)CO)C[C@@H]1C` the activity change, negative = cytotoxicity was -11.8% (inactive).
In the case of `CC(C)NC(=O)N(C)C[C@@H]1OCCCC[C@H](C)Oc2ccc(NC(=O)Cc3ccccc3)cc2C(=O)N([C@H](C)CO)C[C@H]1C`, the activity change, negative = cytotoxicity is reported as 47.6% (inactive).
With `C[C@H](CO)N1C[C@H](C)[C@@H](CN(C)S(=O)(=O)c2cn(C)cn2)Oc2c(NC(=O)Nc3ccccc3)cccc2C1=O` the activity change, negative = cytotoxicity was 1.19% (inactive).
With `COc1ccc(NC(=O)N(C)C[C@H]2OCCCC[C@@H](C)Oc3ccc(NC(=O)c4ccccc4)cc3C(=O)N([C@H](C)CO)C[C@H]2C)cc1` the activity change, negative = cytotoxicity was -27.5% (inactive).
With `O=c1nc(-c2ccccc2)c2ccccc2[nH]1` the activity change, negative = cytotoxicity was 1.46% (inactive).
In the case of `O=C(C1CCOCC1)N1CC[C@@H]2[C@H]1c1cc(Br)ccc1N[C@@H]2CO`, the activity change, negative = cytotoxicity is reported as 8.11% (inactive).
In the case of `C[C@@H]1CN([C@H](C)CO)C(=O)c2cc(NS(=O)(=O)c3cn(C)cn3)ccc2O[C@@H](C)CCCCO[C@H]1CN(C)C`, the activity change, negative = cytotoxicity is reported as 21.8% (inactive).
With `C[C@@H]1CN([C@H](C)CO)C(=O)c2cc(/C=C/c3ccccc3)cnc2O[C@@H]1CN(C)S(C)(=O)=O` the activity change, negative = cytotoxicity was -0.658% (inactive).
With `C=CCNC(=O)CN(c1ccc(F)cc1)S(=O)(=O)c1ccc(OC)cc1` the activity change, negative = cytotoxicity was -6.42% (inactive).
For `C[C@H](O)C#Cc1cnc2c(c1)C(=O)N([C@@H](C)CO)C[C@@H](C)[C@@H](CN(C)C(=O)Cc1ccncc1)O2`, the activity change, negative = cytotoxicity was 0.451% (inactive).
In the case of `O=C(c1c(Cl)cccc1Cl)N1CCN(c2ccccn2)CC1`, the activity change, negative = cytotoxicity is reported as -3.99% (inactive).
In the case of `COCCNC(=O)C[C@@H]1CC[C@@H]2[C@H](COC[C@@H](O)CN2S(=O)(=O)c2ccccc2C)O1`, the activity change, negative = cytotoxicity is reported as 31.5% (inactive).
In the case of `CC(C)NC(=O)N(C)C[C@@H]1OCCCC[C@H](C)Oc2ccc(NC(=O)c3ccccc3)cc2C(=O)N([C@H](C)CO)C[C@H]1C`, the activity change, negative = cytotoxicity is reported as -12.5% (inactive).
For `Cc1cc(C)cc(OCC(=O)NC(C)c2ccccc2)c1` (stereo unspecified), the activity change, negative = cytotoxicity was 14.9% (inactive).
With `O=C1CCC(C(=O)Nc2ccc([N+](=O)[O-])cc2)N1` (stereo unspecified) the activity change, negative = cytotoxicity was -9.02% (inactive).
For `Cc1cccc(C)c1NC(=S)NN(Cc1ccccc1)c1ccccc1`, the activity change, negative = cytotoxicity was 15.7% (inactive).
With `C[C@H](CO)N1C[C@H](C)[C@@H](CN(C)C(=O)Nc2ccc3c(c2)OCO3)Oc2ccc(NS(=O)(=O)c3cccs3)cc2C1=O` the activity change, negative = cytotoxicity was -1.88% (inactive).
With `C/C=C/c1ccc2c(c1)O[C@H](CN(C)S(=O)(=O)c1ccccc1)[C@H](C)CN([C@@H](C)CO)S2(=O)=O` the activity change, negative = cytotoxicity was -8.59% (inactive).
With `O=C(C1CCOCC1)N1C[C@H]2[C@@H](c3ccccc31)[C@@H](CO)N2Cc1ccccc1Cl` the activity change, negative = cytotoxicity was 3.34% (inactive).
In the case of `Cc1ccc(S(=O)(=O)N2C[C@@H](O)COC[C@@H]3O[C@H](CC(=O)NCc4ccc5c(c4)OCO5)CC[C@H]32)cc1`, the activity change, negative = cytotoxicity is reported as 46.9% (inactive).
With `C[C@H](O)C#Cc1ccc([C@H]2[C@H](CO)N3CCCCN(CC4CCOCC4)C[C@@H]23)cc1` the activity change, negative = cytotoxicity was 21.6% (inactive).
For `COc1ccc(N2CCN(C(=O)CSc3ncnc4c3cnn4-c3ccc(OC)cc3)CC2)cc1`, the activity change, negative = cytotoxicity was -4.11% (inactive).
In the case of `C[C@H]1CN([C@@H](C)CO)C(=O)Cc2cc(NS(=O)(=O)c3ccc(F)cc3)ccc2O[C@H]1CN(C)S(=O)(=O)c1ccc(F)cc1`, the activity change, negative = cytotoxicity is reported as 6.2% (inactive).
For `C[C@@H]1CCCCO[C@@H](CN(C)C(=O)NC2CCCCC2)[C@H](C)CN([C@@H](C)CO)C(=O)c2cc(NS(=O)(=O)c3cn(C)cn3)ccc2O1`, the activity change, negative = cytotoxicity was 36.8% (inactive).
For `N#C[C@@H]1[C@@H](c2ccccc2)[C@@H](CO)N1C(=O)Cc1ccccc1`, the activity change, negative = cytotoxicity was -0.39% (inactive).
In the case of `COC(=O)C1=C(C)N(Cc2ccc(Cl)cc2)C(=S)NC1c1ccc(F)cc1` (stereo unspecified), the activity change, negative = cytotoxicity is reported as -32.8% (inactive).
With `C[C@H](CO)N1C[C@H](C)[C@@H](CN(C)Cc2ccncc2)Oc2ccc(NC(=O)CCC(F)(F)F)cc2C1=O` the activity change, negative = cytotoxicity was -2.07% (inactive).
For `CCC(=O)N1[C@@H]2Cn3c(ccc(C4=CCCCC4)c3=O)[C@H]1[C@@H](C(=O)N[C@H](C)c1ccccc1)[C@@H]2CO`, the activity change, negative = cytotoxicity was -16.5% (inactive).
For `COc1cccc(S(=O)(=O)Nc2ccc3c(c2)[C@H]2C[C@H](CC(=O)N(C)C)O[C@@H](CO)[C@H]2O3)c1`, the activity change, negative = cytotoxicity was -5.49% (inactive).
For `NC(=O)NCC#Cc1ccc2c(c1)[C@]1(C(=O)N2)[C@H](C(N)=O)[C@H]2C(=O)O[C@H](c3ccccc3)[C@H](c3ccccc3)N2[C@@H]1c1ccccc1OCCO`, the activity change, negative = cytotoxicity was -5.26% (inactive).
For `O=C1CCC(C(=O)Nc2cccc(C(F)(F)F)c2)N1` (stereo unspecified), the activity change, negative = cytotoxicity was 22% (inactive).
In the case of `COc1cccc(S(=O)(=O)N(C)C[C@@H]2Oc3ncc(-c4cccc(F)c4)cc3C(=O)N([C@H](C)CO)C[C@@H]2C)c1`, the activity change, negative = cytotoxicity is reported as -18.4% (inactive).
In the case of `CC(C)NC(=O)N(C)C[C@H]1OCCCC[C@@H](C)Oc2ccc(NC(=O)c3ccccc3)cc2C(=O)N([C@@H](C)CO)C[C@@H]1C`, the activity change, negative = cytotoxicity is reported as -10.9% (inactive).
In the case of `Cc1ccc(C(=O)NC(=S)Nc2ccccc2N2CCCC2)cc1[N+](=O)[O-]`, the activity change, negative = cytotoxicity is reported as -8.33% (inactive).
For `C[C@@H](NC(=O)C[C@@H]1CC[C@H]2[C@@H](COC[C@@H](O)CN2Cc2cc(F)ccc2F)O1)c1ccccc1`, the activity change, negative = cytotoxicity was -19.7% (inactive).
For `CC(C)NC(=O)N(C)C[C@@H]1OCCCC[C@@H](C)Oc2ccc(NC(=O)c3ccccc3)cc2C(=O)N([C@H](C)CO)C[C@@H]1C`, the activity change, negative = cytotoxicity was -7.94% (inactive).
With `Cc1cc(C(=O)Nc2ccc3c(c2)C(=O)N(C)[C@@H]2CC[C@@H](CC(=O)N[C@@H](C)c4ccccc4)O[C@@H]2CO3)no1` the activity change, negative = cytotoxicity was -33.4% (inactive).
For `COCC#Cc1cnc2c(c1)C(=O)N([C@H](C)CO)C[C@H](C)[C@H](CN(C)C(=O)C1CC1)O2`, the activity change, negative = cytotoxicity was -5.58% (inactive).
With `O=C(NC[C@@H]1[C@H](c2ccccc2)[C@@H](CO)N1C(=O)Cc1cccnc1)C1CCC1` the activity change, negative = cytotoxicity was 8.39% (inactive).
